# Experimental data taken from US20100297675A1, “SUBSTRATE AND METHOD FOR CULTURING BREAST CELLS” (priority 2008, published 2010).
# Experiments:
# [1] = system: breast cancer cells; conditions: Matrigel 3D culture system; reported; cited from earlier work
# [2] = system: MCF-7 malignant breast cells; assay: MCF-7 malignant cells cultured on 2D TCT culture surface, treated with inhibitor, confocal fluorescence imaging; format: cell-based; conditions: MCF-7 on TCT 2D surface; 4 μM on alternate days for 15 days; E-cadherin/DAPI stain; FIGS. 11A-C
# Experimental: Differences in cellular morphology often contribute to differences in cellular function. To understand the difference of cellular functions between breast cells cultured in a porous substrate and on a 2D culture surface, 10,000 MCF-7 malignant cell were seeded and cultured in porous PDMS (as described in Example 1) and a TCT culture surface (tissue culture treated polystyrene, “TCT”, Coming Inc) under the same conditions. The cells were treated with 4 μM of PD98059 (MAPK inhibitor) and 4 μM of LY294002 (PI3K inhibitor) on alternate days for 15 days. […] In FIGS. 11A-C, the cells were stained for E-cadherin and counterstained with a DAPI nuclei stain. In FIG. 11A, untreated cells are shown at 14 days of culture. In FIG. 11B, cells treated with PD98059 are shown at 14 days of culture. In FIG. 11C, cells treated with LY294002 are shown at 14 days of culture. The green (E-cadherin) and blue (nuclei) stains cannot be seen in the black and white reproductions presented herein.
# [3] = system: MCF-7 malignant breast cells; assay: MCF-7 malignant cells cultured in porous PDMS substrate, treated with inhibitor, confocal fluorescence imaging; format: cell-based; conditions: MCF-7 in porous PDMS, 4 μM on alternate days for 15 days, F-actin/DAPI stain
# Source text: Porous polydimethylsiloxane (PDMS) substrates were generated by mixing a PDMS pre-polymer and a curing agent using the Sylgard 182 kit available from Dow Corning in a ratio of 10 to 1. The mixture was closely packed with sugar crystals of size ranging from 212-250 micrometers, which was then filled in a mold and cured at 100 degrees for one hour. The sugar in the cured polymer was washed out in an ultrasonic bath, forming porous PDMS substrates. The resulting porous PDMS was released from the mold and assembled into multi-well plate for cell culture. Malignant breast cells MCF-7 were seeded in wells having the porous PDMS substrates described in Example 1. 10,000 cells were seeded and cultured in EMEM cell culture medium with 10% Fetal Bovine Serum, 5% pen/strep, and 10 μg/ml of insulin. The medium was changed on alternate days. Following two weeks of culture, the cells were stained with Rhodamine phalloidin (F-actin staining) and DAPI nuclei counter stain and imaged with confocal fluorescence microscope as shown in FIG. 9. […] Differences in cellular morphology often contribute to differences in cellular function. […]
compound,measurement,setting,value
COc1cccc(-c2cc(=O)c3ccccc3o2)c1N [PD98059],reversal of malignant behaviors of breast cancer cells,[1],reverse malignant behaviors of breast cancer cells to certain degrees
same,noticeable difference for the cells cultured on TCT surface (reversion of malignant phenotype or other change),[2],failed to induce noticeable difference
same,colony size,[3]; FIGS. 12A-C,significantly reduced the colony size
same,reversion of malignant phenotype (mass structure to acini structure),[3]; FIGS. 13A-C,reversed malignant phenotype from mass structure to normal acini structure
